Measured values from patent US8835440B2, “Cyclic pyrimidin-4-carboxamides as CCR2 receptor antagonists for treatment of inflammation, asthma and COPD” (Boehringer Ingelheim International GmbH, priority 2008, dated 2014).

Molecular target: T1, CCR2 (Homo sapiens, UniProt P41597)
T1 construct: Membranes were prepared from THP-1 cells; endogenous in cells; host or cells: THP-1 cells (membrane preparation)
T1 sequence (P41597 1-360 isoform P41597-2): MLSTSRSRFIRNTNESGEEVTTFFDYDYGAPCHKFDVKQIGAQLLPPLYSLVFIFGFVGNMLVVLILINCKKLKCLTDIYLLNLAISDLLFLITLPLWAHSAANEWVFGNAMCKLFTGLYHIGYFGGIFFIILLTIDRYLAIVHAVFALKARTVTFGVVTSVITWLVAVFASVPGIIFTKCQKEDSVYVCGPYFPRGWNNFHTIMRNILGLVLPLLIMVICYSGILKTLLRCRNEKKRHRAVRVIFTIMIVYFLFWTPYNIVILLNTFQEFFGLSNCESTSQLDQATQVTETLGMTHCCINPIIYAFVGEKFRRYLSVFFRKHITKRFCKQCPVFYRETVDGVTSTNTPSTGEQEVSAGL
Assay: CCR2 receptor membrane binding assay ([125I]MCP-1, THP-1 cell membranes, SPA beads)
Conditions: for remaining activity at 10 µM: read-out: CCR2 % ctrl @ 10 μM; for Ki: dissociation constant hKi, [125I]MCP-1 binding to THP-1 membranes
How it was run: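 Human THP-1 monocytic cell membranes, pre-coupled to WGA-PVT SPA beads, were incubated with compound and [125I]MCP-1 (ca. 25000 cpm) in 25 mM HEPES pH 7.2, 5 mM MgCl2, 0.5 mM CaCl2, 0.2% BSA, at 1% DMSO final. Bound radioactivity was counted after 8 h, and Ki was obtained by iterative mass-action fitting.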

[1] = @ 10 μM test compound, THP-1 membranes

For `Cc1cc(CNc2ncnc(C(=O)N3CCC(N4CCCCC4)CC3)c2C)ccc1F` [Example 135], the remaining activity at 10 µM [1] was 19% and the Ki was 888 nM.
Compound `COc1ccc(CCNc2ncnc(C(=O)N3CCC(N4CCCCC4)CC3)c2C)cc1Cl` [Example 136] has a remaining activity at 10 µM [1] of 14% and a Ki of 773 nM.
With `Cc1ccc(CNc2ncnc(C(=O)N3CCC(N4CCCCC4)CC3)c2C)cc1F` [Example 137] the “CCR2 % ctrl @ 10 μM” value (@ 10 μM test compound, THP-1 membranes, 10 µM) was 14 % ctrl and the Ki was 634 nM.
With `Cc1c(NCC2CCC(c3ccccc3)CC2)ncnc1C(=O)N1CCC(N2CCCCC2)CC1` (stereo not shown) [Example 138] the remaining activity at 10 µM [1] was 6% and the Ki was 145 nM.
`Cc1c(NCCc2cccc(Cl)c2)ncnc1C(=O)N1CCC(N2CCCCC2)CC1` [Example 139] was tested, and the remaining activity at 10 µM [1] was 9% and the Ki was 443 nM.
`Cc1c(NCc2cccc(Cl)c2)ncnc1C(=O)N1CCC(N2CCCCC2)CC1` [Example 140] showed a remaining activity at 10 µM [1] of 16% and a Ki of 692 nM.
For `Cc1c(NCCc2ccc(Cl)cc2)ncnc1C(=O)N1CCC(N2CCCCC2)CC1` [Example 141], the remaining activity at 10 µM [1] was 7% and the Ki was 422 nM.
Work on `Cc1c(NCc2ccc(Cl)c(C(F)(F)F)c2)ncnc1C(=O)N1CCC(N2CCCCC2)CC1` [Example 142] yielded a remaining activity at 10 µM [1] of 8% and a Ki of 529 nM.
In the case of `Cc1ccc(CCNc2ncnc(C(=O)N3CCC(N4CCCCC4)CC3)c2C)cc1C` [Example 143], the remaining activity at 10 µM [1] is reported as 8% and the Ki is reported as 422 nM.
`Cc1c(NC[C@@H]2CCC[C@@H](c3ccccc3)C2)ncnc1C(=O)N1CCC(N2CCC(O)CC2)CC1` [Example 144] showed a remaining activity at 10 µM [1] of 7% and a Ki of 91 nM.
Work on `Cc1c(NC[C@@H]2CCC[C@H](c3ccccc3)C2)ncnc1C(=O)N1CCC(N2CCC(O)CC2)CC1` [Example 145] yielded a remaining activity at 10 µM [1] of 17% and a Ki of 181 nM.
With `Cc1c(NC[C@H]2CCC[C@@H](c3ccccc3)C2)ncnc1C(=O)N1CCC(N2CCC(N(C)S(C)(=O)=O)CC2)CC1` [Example 146] the remaining activity at 10 µM [1] was 7% and the Ki was 3 nM.
In the case of `CCS(=O)(=O)N(C)C1CCN(C2CCN(C(=O)c3ncnc(NC[C@@H]4C[C@H]4c4ccccc4)c3C)CC2)CC1` [Example 147], the remaining activity at 10 µM [1] is reported as 8% and the Ki is reported as 40 nM.
In the case of `Cc1c(NCC2CCCc3ccccc32)ncnc1C(=O)N1CCC(N2CCC(N(C)S(C)(=O)=O)CC2)CC1` (stereo not shown) [Example 148], the remaining activity at 10 µM [1] is reported as 4% and the Ki is reported as 119 nM.
`Cc1c(NC[C@@H]2CCN(c3ccccc3)C2)ncnc1C(=O)N1CCC(N2CCC(N(C)S(C)(=O)=O)CC2)CC1` [Example 149] was tested, and the remaining activity at 10 µM [1] was 10% and the Ki was 41 nM.
`Cc1c(NC[C@H]2CCC[C@H](c3ccccc3)C2)ncnc1C(=O)N1CCC(N2CCC(N(C)S(C)(=O)=O)CC2)CC1` [Example 150] showed a remaining activity at 10 µM [1] of 3% and a Ki of 12 nM.
Work on `Cc1c(NC[C@@H]2CCC[C@H](c3ccccc3)C2)ncnc1C(=O)N1CCC(N2CCC(N(C)S(C)(=O)=O)CC2)CC1` [Example 151] yielded a remaining activity at 10 µM [1] of 7% and a Ki of 14 nM.
Compound `Cc1c(NC[C@@H]2C[C@H]2c2ccccc2)ncnc1C(=O)N1CCC(N2CCC(N(C)S(C)(=O)=O)CC2)CC1` [Example 152] has a remaining activity at 10 µM [1] of 7% and a Ki of 44 nM.
For `Cc1c(NCCc2ccc(C(C)(C)C)cc2)ncnc1C(=O)N1CCC(N2CCC(N(C)S(C)(=O)=O)CC2)CC1` [Example 153], the remaining activity at 10 µM [1] was 1% and the Ki was 27 nM.
`Cc1c(NCC2CCCN(c3ccc(C#N)c(Cl)c3)C2)ncnc1C(=O)N1CCC(N2CCC(N(C)S(C)(=O)=O)CC2)CC1` (stereo not shown) [Example 154] was tested, and the remaining activity at 10 µM [1] was 15% and the Ki was 123 nM.
`Cc1c(NCC2CCCN(c3ccccc3)C2)ncnc1C(=O)N1CCC(N2CCC(N(C)S(C)(=O)=O)CC2)CC1` (stereo not shown) [Example 155] showed a remaining activity at 10 µM [1] of 8% and a Ki of 76 nM.
For `Cc1c(NC[C@H]2CCN(c3ccccc3)C2)ncnc1C(=O)N1CCC(N2CCC(N(C)S(C)(=O)=O)CC2)CC1` [Example 156], the remaining activity at 10 µM [1] was 8% and the Ki was 18 nM.
Work on `Cc1c(NCc2cnc3ccccc3c2)ncnc1C(=O)N1CCC(N2CCC(N(C)S(C)(=O)=O)CC2)CC1` [Example 157] yielded a remaining activity at 10 µM [1] of 23% and a Ki of 1150 nM.
`Cc1c(NC[C@@H]2CCC[C@@H](c3ccccc3)C2)ncnc1C(=O)N1CCC(N2CCC(N(C)S(C)(=O)=O)CC2)CC1` [Example 158] gave a remaining activity at 10 µM [1] of 0% and a Ki of 6 nM.
Work on `Cc1nc(NC[C@H]2CCN(c3ccccc3)C2)c(C)c(C(=O)N2CCC(N3CCC(N(C)S(C)(=O)=O)CC3)CC2)n1` [Example 159] yielded a remaining activity at 10 µM [1] of 4% and a Ki of 25 nM.
Compound `COc1nc(NCC2CCCC(c3ccccc3)C2)c(C)c(C(=O)N2CCC(N3CCC(N(C)S(C)(=O)=O)CC3)CC2)n1` (stereo not shown) [Example 159a] has a Ki of 10 nM.
Compound `CNC(=O)C1CCN(C2CCN(C(=O)c3ncnc(NCC4CCCC(c5ccc(F)cc5)C4)c3C)CC2)CC1` (stereo not shown) [Example 159aa] has a Ki of 18 nM.
Work on `Cc1c(NCC2CCC(c3ccc(Cl)cc3)O2)ncnc1C(=O)N1CCC(N2CCC(N(C)S(C)(=O)=O)CC2)CC1` (stereo not shown) [Example 159ab] yielded a Ki of 27 nM.
With `Cc1c(NCC2CCOCC2)ncnc1C(=O)N1CCC(N2CCC(N(C)S(C)(=O)=O)CC2)CC1` [Example 159ac] the Ki was 5940 nM.
In the case of `COc1nc(NCc2ccc(C(C)(C)C)cc2)c(C)c(C(=O)N2CCC(N3CCC(N(C)S(C)(=O)=O)CC3)CC2)n1` [Example 159b], the Ki is reported as 7 nM.
Compound `Cc1c(NCC2CCCC(c3ccc(F)cc3)C2)ncnc1C(=O)N1CCC(N2CCC(NS(C)(=O)=O)CC2)CC1` (stereo not shown) [Example 159ba] has a Ki of 11 nM.
For `Cc1c(NCC2CCC(C)C2)ncnc1C(=O)N1CCC(N2CCC(N(C)S(C)(=O)=O)CC2)CC1` (stereo not shown) [Example 159bb], the Ki was 48 nM.
Compound `Cc1c(NCC2CCCOC2)ncnc1C(=O)N1CCC(N2CCC(N(C)S(C)(=O)=O)CC2)CC1` (stereo not shown) [Example 159bc] has a Ki of 3490 nM.
Work on `Cc1c(NCC2CCC(c3ccc(Cl)cc3)C2)ncnc1C(=O)N1CCC(N2CCC(N(C)S(C)(=O)=O)CC2)CC1` (stereo not shown) [Example 159c] yielded a Ki of 13 nM.
Compound `Cc1c(NCC2CCCC(c3ccc(Cl)cc3)C2)ncnc1C(=O)N1CCC(N2CCC(NS(C)(=O)=O)CC2)CC1` (stereo not shown) [Example 159ca] has a Ki of 3 nM.
Work on `Cc1ccc(C2CCC(CNc3ncnc(C(=O)N4CCC(N5CCC(N(C)S(C)(=O)=O)CC5)CC4)c3C)O2)cc1` (stereo not shown) [Example 159cb] yielded a Ki of 39 nM.
`Cc1nc(NC[C@@H]2CCC[C@H](c3ccc(C)o3)C2)c(C)c(C(=O)N2CCC(N3CCC(N(C)S(C)(=O)=O)CC3)CC2)n1` [Example 159cc] gave a Ki of 10 nM.
For `Cc1c(NCC2CCC(c3ccccc3)C2)ncnc1C(=O)N1CCC(N2CCC(N(C)S(C)(=O)=O)CC2)CC1` (stereo not shown) [Example 159d], the Ki was 15 nM.
Work on `Cc1c(NCC2CCCC(c3ccc(Cl)cc3)C2)ncnc1C(=O)N1CCC(N2CCC(N(C)S(C)(=O)=O)CC2)CC1` (stereo not shown) [Example 159da] yielded a Ki of 5 nM.
With `Cc1c(NCC2CCCC(c3cccc(F)c3)C2)ncnc1C(=O)N1CCC(N2CCC(N(C)S(C)(=O)=O)CC2)CC1` (stereo not shown) [Example 159db] the Ki was 16 nM.
With `COC1COCCC1NC1CCN(C(=O)c2ncnc(NCC3CCCCC3)c2C)CC1` (stereo not shown) [Example 159dc] the Ki was 38 nM.
For `Cc1c(NCC2CCCCC2)ncnc1C(=O)N1CCC(N2CCC(N(C)S(C)(=O)=O)CC2)CC1` [Example 159e], the Ki was 28 nM.
In the case of `CNC(=O)C1CCN(C2CCN(C(=O)c3ncnc(NCC4CCCC(c5ccc(Cl)cc5)C4)c3C)CC2)CC1` (stereo not shown) [Example 159ea], the Ki is reported as 7 nM.
For `Cc1c(NCC2CC(c3ccccc3)CO2)ncnc1C(=O)N1CCC(N2CCC(N(C)S(C)(=O)=O)CC2)CC1` (stereo not shown) [Example 159eb], the Ki was 72 nM.
In the case of `COC1COCCC1NC1CCN(C(=O)c2ncnc(NC3Cc4ccccc4C3)c2C)CC1` (stereo not shown) [Example 159ec], the Ki is reported as 961 nM.
